Consider 9 compounds from ChEMBL document CHEMBL3751692, “Synthesis and fluorescent study of 5-phenyl furocoumarin derivatives as vasodilatory agents” (Bioorg Med Chem Lett, 2016).

As a reminder, the pEC50 is the EC50 on a negative log10 scale, so that one unit is a factor of ten. Broadly, the Emax is the maximal effect, on the per cent scale that the assay sets.

Experiment [1] in a line: Vasodilator activity in Sprague-Dawley rat mesentric artery assessed as reduction in of K+-induced contraction. The experiment is classed as functional, Mesenteric artery.
A short description of experiment [2]: Vasodilator activity in Sprague-Dawley rat mesentric artery assessed as reduction in of K+-induced contraction relative to control. As to conditions: Mesenteric artery. The format is functional.

Take `CCOC(=O)c1ccccc1-c1c2ccoc2c(OCCN2CCCC2)c2oc(=O)ccc12`: in experiment [1], the pEC50 worked out at 5.15. Moreover, the Emax in experiment [2] worked out at 100%.
On the same counts, the results for `COC(=O)c1ccccc1-c1c2ccoc2c(OCCN2CCOCC2)c2oc(=O)ccc12` are 5.59 and 100%.
The matching figures for `COC(=O)c1ccccc1-c1c2ccoc2c(OCCN2CCCC2)c2oc(=O)ccc12`: 4.71 and 102%.
Turning to `CCOC(=O)c1ccccc1-c1c2ccoc2c(OCCN2CCOCC2)c2oc(=O)ccc12`, the pEC50 in experiment [1] was determined as 5.81. Besides, the Emax in experiment [2] was determined as 113%.
As to `COC(=O)c1ccccc1-c1c2ccoc2c(OCCN(C)C)c2oc(=O)ccc12`, the pEC50 in experiment [1] amounted to 5.27. For the same compound, the Emax in experiment [2] was found to be 102%.
Consider `COC(=O)c1ccccc1-c1c2ccoc2c(OCCN2CCCCC2)c2oc(=O)ccc12`, for which the negative-log EC50 (pEC50) in experiment [1] was determined as 5.35. Further, the Emax in experiment [2] came out at 116%.
On to `CC(C)=CCOc1c2occc2cc2ccc(=O)oc12` [PENTOSALEN], for which the negative logarithm of the EC50 (pEC50) in experiment [1] worked out at 4.95. Also, in experiment [2], the Emax turned out to be 85.6%.
Consider `COc1ccc(CCN(C)CCCC(C#N)(c2ccc(OC)c(OC)c2)C(C)C)cc1OC` (stereo not drawn) [VERAPAMIL], for which the pEC50 in experiment [1] was determined as 7.51. Besides, the Emax in experiment [2] was 95.8%.
On to `CCOC(=O)c1ccccc1-c1c2ccoc2c(OCCN2CCCCC2)c2oc(=O)ccc12`, for which, in experiment [1], the pEC50 was 5.38. Also, the Emax in experiment [2] amounted to 113%.
